Source: paper PMC7827648 (Molecules, 2021)
Values joined by “and” are separate entries in the source; they are usually repeats but may differ in a detail not shown here. Equal entries are not always repeated.

Tests used:
[1] = system: RD (rhabdomyosarcoma) cells; assay: Cytotoxicity, MTT assay, RD cells; type: cell-based; details: Homo sapiens, read-out: IC50, 50% inhibition of the cell population growth, 72 h, mean ± SD
Experimental: (§1) The cytotoxicity of the newly synthesized Schiff bases was evaluated in vitro in a panel of cultured tumor cells, assessing cell viability at scalar concentrations of the test compounds (≤500 μM) by MTT (i.e., 3-(4,5-dimethylthiazol-2-yl)-2,5-diphenyltetrazolium bromide) and Alamar Blue assays, using doxorubicin as the positive controls. Most of the compounds were tested against RD (rhabdomyosarcoma), HCT116 (intestinal carcinoma), HeLa (adenocarcinoma of the cervix uterus) and A549 (lung adenocarcinoma) cell lines, whereas five representative compounds of the subsets were tested also against K562 (chronic myelogenous leukemia) tumor cells.
(§2) The experiments were carried out in triplicate.

[2] = system: HCT116 (intestinal carcinoma) cells; assay: Cytotoxicity, MTT assay, HCT116 cells; type: cell-based; details: Homo sapiens, HCT-116, read-out: IC50, 50% inhibition of the cell population growth, 72 h, mean ± SD
Experimental: as §1, §2

[3] = system: HeLa (adenocarcinoma of the cervix uterus) cells; assay: Cytotoxicity, MTT assay, HeLa cells; type: cell-based; details: Homo sapiens, read-out: IC50, 50% inhibition of the cell population growth, 72 h, mean ± SD
Experimental: as §1, §2

[4] = system: K562 (chronic myelogenous leukemia) cells; assay: Cytotoxicity, Alamar Blue (resazurin) assay, K562 cells; type: cell-based; details: Homo sapiens, read-out: IC50, 50% inhibition of the cell population growth, 72 h, mean ± SD
Experimental: as §1, §2

[5] = biological target: human acetylcholinesterase (AChE) (Homo sapiens, UniProt P22303); assay: biochemical; details: for inhibition at 10 µM: mean ± SD (n = 3), read-out: % inhibition hAChE; for IC50: human recombinant AChE, pH 8.0, mean ± SD (n = 3), read-out: IC50 hAChE
Experimental: (§3) The ChE inhibition assay was carried out using the Ellman’s spectrophotometric method [23], as applied to the 96-well plate technique [24] on a Tecan Infinite M1000 Pro instrument (Cernusco s.N., Italy).

[6] = biological target: T1, human butyrylcholinesterase (BChE) (Homo sapiens, UniProt P06276); assay: BChE inhibition, Ellman's method; type: biochemical; details: mean ± SD (n = 3), n.i. = no inhibition; for % inhibition hBChE: at 10 μM
T1 construct: BChE from human serum (50 U/mg); from tissue; host or cells: human serum
Experimental: as §3

[7] = biological target: T2, β-amyloid (Aβ)1–40 self-aggregation (Homo sapiens, UniProt P05067); assay: Inhibition of self-induced Aβ40 aggregation, thioflavin T fluorescence; type: biochemical; details: Aβ40 30 μM, 2% HFIP, ThT, mean ± SD (n = 3); for IC50: PBS pH 7.4, 2 h
T2 construct: self-aggregation of Aβ peptides 1–40 (Aβ40)
Experimental: Molecules able to inhibit simultaneously AChE and β-amyloid (Aβ) aggregation/neurotoxicity may have potential as drugs for the treatment of AD [14]. Herein, the new DHPPIQ derivatives were evaluated for the inhibitory effects on the self-aggregation of Aβ peptides 1–40 (Aβ40), through a test based on the measurement of thioflavin T (ThT) fluorescence. Quercetin, which is a strong inhibitor of in vitro Aβ self-aggregation, was used as a positive control.
Each compound was initially tested at a 100-μM concentration. […] […].
According to an already reported 96-well plate procedure, the test compounds at 100 μM were incubated with Aβ40 (30 μM) and 2% HFIP (1,1,1,3,3,3-hexafluoro-2-propanol), used as aggregation enhancer in PBS pH 7.4 for 2 h at room temperature. After the addition of ThT, the fluorescence was read at the 440/485 nm excitation/emission wavelength. Experiments were performed in triplicate, and the % inhibition values calculated as mean ± SD.

[8] = system: A549 (lung adenocarcinoma) cells; assay: Cytotoxicity, MTT assay, A549 cells; type: cell-based; details: Homo sapiens, read-out: IC50, 50% inhibition of the cell population growth, 72 h, mean ± SD
Experimental: as §1, §2

in vitro = details: human
human MAO A = biological target: T3, human MAO A (Homo sapiens, UniProt P21397); assay: biochemical; details: human recombinant MAO A, kynuramine, mean ± SD (n = 3); read-out: IC50 hMAO A
T3 construct: host or cells: baculovirus-infected insect cells (microsomes)
T3 sequence (P21397 1-527): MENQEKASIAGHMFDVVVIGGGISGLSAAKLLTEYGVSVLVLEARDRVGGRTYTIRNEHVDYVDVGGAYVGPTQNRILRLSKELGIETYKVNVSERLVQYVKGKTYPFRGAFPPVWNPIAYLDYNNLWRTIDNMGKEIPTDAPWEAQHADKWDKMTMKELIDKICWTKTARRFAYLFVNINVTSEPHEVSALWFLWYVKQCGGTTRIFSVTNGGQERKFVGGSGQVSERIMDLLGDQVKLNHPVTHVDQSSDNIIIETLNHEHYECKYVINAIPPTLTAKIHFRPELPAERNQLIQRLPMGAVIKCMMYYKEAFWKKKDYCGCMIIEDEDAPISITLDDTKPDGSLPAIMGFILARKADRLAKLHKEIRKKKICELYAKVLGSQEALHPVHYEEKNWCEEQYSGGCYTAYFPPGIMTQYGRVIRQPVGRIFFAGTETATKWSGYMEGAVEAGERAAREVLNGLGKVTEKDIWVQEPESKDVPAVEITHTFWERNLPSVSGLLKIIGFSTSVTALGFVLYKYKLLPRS
Experimental: (§4) The inhibition of human recombinant MAO A (250 U/mg) and B (59 U/mg; microsomes from baculovirus-infected insect cells) was evaluated using the reported 96-well plate technique [12]. on a Tecan Infinite M1000 Pro instrument (Cernusco s.N., Italy). […] After addition of the enzyme and 30 min of incubation, NaOH was added and the fluorescence read at the 310/400 excitation/emission wavelength.

human MAO B = biological target: T4, human MAO B (Homo sapiens, UniProt P27338); assay: biochemical; details: at 10 μM, mean ± SD (n = 3); read-out: % inhibition hMAO B
T4 construct: host or cells: baculovirus-infected insect cells (microsomes)
T4 sequence (P27338 1-520): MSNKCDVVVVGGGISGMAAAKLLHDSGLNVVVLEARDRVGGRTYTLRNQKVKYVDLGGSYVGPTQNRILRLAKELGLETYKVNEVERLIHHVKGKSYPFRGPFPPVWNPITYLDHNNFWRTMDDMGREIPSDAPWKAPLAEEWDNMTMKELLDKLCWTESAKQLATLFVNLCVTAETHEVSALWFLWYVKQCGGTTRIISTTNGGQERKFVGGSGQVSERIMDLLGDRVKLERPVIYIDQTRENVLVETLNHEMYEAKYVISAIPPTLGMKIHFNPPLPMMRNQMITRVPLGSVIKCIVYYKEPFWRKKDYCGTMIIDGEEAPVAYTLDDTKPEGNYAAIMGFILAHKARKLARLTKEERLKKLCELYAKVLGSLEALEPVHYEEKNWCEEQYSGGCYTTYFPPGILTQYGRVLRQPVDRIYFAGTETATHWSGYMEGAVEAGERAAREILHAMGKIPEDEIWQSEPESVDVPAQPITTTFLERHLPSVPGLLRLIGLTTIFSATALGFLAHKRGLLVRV
Experimental: as §4

T1 sequence (P06276 29-602): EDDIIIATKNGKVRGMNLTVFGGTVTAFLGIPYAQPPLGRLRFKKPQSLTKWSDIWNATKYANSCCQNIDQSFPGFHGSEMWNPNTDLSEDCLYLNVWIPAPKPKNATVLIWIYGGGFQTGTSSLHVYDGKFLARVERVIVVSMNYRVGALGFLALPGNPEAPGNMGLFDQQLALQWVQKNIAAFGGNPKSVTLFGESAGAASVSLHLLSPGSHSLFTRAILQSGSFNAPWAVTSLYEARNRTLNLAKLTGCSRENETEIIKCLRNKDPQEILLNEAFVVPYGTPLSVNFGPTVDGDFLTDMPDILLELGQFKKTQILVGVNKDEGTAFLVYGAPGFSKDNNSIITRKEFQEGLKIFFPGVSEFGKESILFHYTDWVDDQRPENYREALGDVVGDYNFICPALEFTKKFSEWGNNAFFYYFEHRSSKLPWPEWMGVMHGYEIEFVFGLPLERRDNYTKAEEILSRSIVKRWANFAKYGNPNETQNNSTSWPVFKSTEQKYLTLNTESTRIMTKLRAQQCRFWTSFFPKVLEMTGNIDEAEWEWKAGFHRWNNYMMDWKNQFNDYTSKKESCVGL
T2 sequence (P05067 672-711 limits assumed): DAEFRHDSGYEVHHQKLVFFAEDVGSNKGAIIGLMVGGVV
Chain of human acetylcholinesterase (AChE) (P22303 32-614): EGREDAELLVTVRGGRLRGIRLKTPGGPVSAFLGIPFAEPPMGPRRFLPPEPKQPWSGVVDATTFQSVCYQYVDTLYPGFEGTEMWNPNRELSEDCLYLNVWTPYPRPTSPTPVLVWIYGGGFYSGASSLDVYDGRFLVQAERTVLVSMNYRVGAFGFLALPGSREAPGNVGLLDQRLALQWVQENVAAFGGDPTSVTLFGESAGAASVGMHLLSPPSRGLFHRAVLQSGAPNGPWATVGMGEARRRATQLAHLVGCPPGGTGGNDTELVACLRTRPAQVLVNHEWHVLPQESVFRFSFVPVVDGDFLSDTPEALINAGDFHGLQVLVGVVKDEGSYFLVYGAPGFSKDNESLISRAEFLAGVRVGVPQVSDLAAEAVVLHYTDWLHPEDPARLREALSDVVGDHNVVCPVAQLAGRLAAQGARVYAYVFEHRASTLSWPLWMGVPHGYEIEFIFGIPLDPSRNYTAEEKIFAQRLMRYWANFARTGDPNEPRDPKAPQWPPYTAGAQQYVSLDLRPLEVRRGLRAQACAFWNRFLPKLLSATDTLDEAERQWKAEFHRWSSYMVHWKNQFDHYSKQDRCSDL

| SMILES | IC50 [1] [µM] | IC50 [2] [µM] | IC50 [3] [µM] | IC50 [4] [µM] | inhibition at 10 µM [5] [%] | % inhibition hBChE [6] | inhibition at 100 µM [7] [%] | IC50 [8] [µM] | inhibition mechanism on hAChE ([5]; Michaelis-Menten / Lineweaver-Burk plots) | Ki ([5]; complete kinetics, human AChE, read-out: inhibition constant (Ki) hAChE) [µM] | IC50 [5] | IC50 at 72 h (in vitro) [µM] | IC50 [7] [µM] | IC50 (human MAO A) [µM] | inhibition at 10 µM (human MAO B) [%] | IC50 at 72 h (in vitro; SH-SY5Y neuroblastoma cells) [µM] | inhibition at 10 µM ([6]; read-out: % inhibition hBChE) [%] |
| --- | --- | --- | --- | --- | --- | --- | --- | --- | --- | --- | --- | --- | --- | --- | --- | --- | --- |
| CCOc1ccc(-c2c(/C=N/CC/N=C/c3cn4c(c3-c3ccc(OCC)c(OCC)c3)-c3cc(OCC)c(OCC)cc3CC4)cn3c2-c2cc(OCC)c(OCC)cc2CC3)cc1OCC [Compound 19, (1E,1’E)-N,N’-(ethane-1,2-diyl)bis(1-(1-(3,4-diethoxyphenyl)-8,9-diethoxy-5,6-dihydropyrrolo[2,1-a]isoquinolin-2-yl)methanimine)] | 65.1 ± 7.3 | 401 ± 8 | 84 ± 1.3 | 290 ± 12 | 37 ± 2 | n.i. | 48 ± 3 |  |  |  |  |  |  |  |  |  |  |
| COc1cc2c(cc1OC)-c1c(-c3ccc(Cl)cc3)c(C=O)c(-c3ccccc3)n1CC2 [Compound 4] | 163 ± 20 | 252 ± 11 | 109 ± 5 |  |  | n.i. | 35 ± 6 | 105 ± 11 | noncompetitive/mixed-type mechanism | 3.58 ± 0.04 | 7.9 ± 0.13 µM |  |  |  |  |  |  |
| COc1cccc2c1C(=O)c1c(O)c3c(c(O)c1C2=O)C[C@@](O)(C(=O)CO)C[C@@H]3O[C@H]1C[C@H](N)[C@H](O)[C@H](C)O1 [Doxorubicin, reference compound] | 0.29 ± 0.021 | 0.142 ± 0.011 | 0.892 ± 0.013 | 1.75 ± 0.06 |  |  |  | 0.38 ± 0.021 |  |  |  |  |  |  |  |  |  |
| COc1cc2c(cc1OC)-c1c(-c3ccc(F)cc3)c(C=O)c(-c3ccccc3)n1CC2 [Compound 6] | 91.1 ± 10.9 | 261 ± 13 |  |  |  |  |  |  |  |  |  |  |  |  |  |  |  |
| CC[C@@]1(O)C(=O)OCc2c1cc1n(c2=O)Cc2cc3ccccc3nc2-1 [Camptothecin, reference compound] |  |  |  |  |  |  |  |  |  |  |  | 0.272 ± 0.01 |  |  |  |  |  |
| COc1cc2c(cc1OC)-c1c(-c3ccc(Cl)cc3)c(C=O)cn1CC2 [Compound 3] | 17.6 ± 3.2 | 22 ± 4 | 33 ± 4.5 |  | 32 ± 3 | n.i. |  | 38.6 ± 3.2 |  |  |  |  | 66 ± 2.2 |  |  |  |  |
| COc1cc2c(cc1OC)-c1c(-c3ccc(Cl)cc3)c(/C=N/c3ccc(/N=C/c4c(-c5ccc(Cl)cc5)c5n(c4-c4ccccc4)CCc4cc(OC)c(OC)cc4-5)cc3)c(-c3ccccc3)n1CC2 [Compound 15a, (1E,1’E)-N,N’-(1,4-phenylene)bis(1-(1-[4-chlorophenyl]-8,9-dimethoxy-3-phenyl-5,6-dihydropyrrolo[2,1-a]isoquinolin-2-yl)methanimine)-1,4-diaminium dichloride] | 149 ± 3 | 102 ± 5 | 93.4 ± 2.6 | 251 ± 17 | 25 ± 3 | n.i. |  | 120 ± 3.5 |  |  |  |  | 50 ± 6.3 |  |  |  |  |
| COc1ccc(/N=C/c2cn3c(c2-c2ccc(F)cc2)-c2cc(OC)c(OC)cc2CC3)cc1 [Compound 11, (E)-1-(1-(4-fluorophenyl)-8,9-dimethoxy-5,6-dihydropyrrolo[2,1-a]isoquinolin-2-yl)-N-(4-methoxyphenyl)methanimine] | 145 ± 1 | 114 ± 4 | 87.2 ± 1.1 |  | 40 ± 2 | n.i. |  | 153 ± 2.2 |  |  |  |  | 54 ± 2.2 | 18.1 ± 1.2 | 22 ± 4 | 56.1 ± 2.4 |  |
| COc1ccc(/N=C/c2c(-c3ccc(Cl)cc3)c3n(c2-c2ccccc2)CCc2cc(OC)c(OC)cc2-3)cc1 [Compound 10, (E)-1-(1-(4-chlorophenyl)-8,9-dimethoxy-3-phenyl-5,6-dihydropyrrolo[2,1-a]isoquinolin-2-yl)-N-(4-methoxyphenyl)methanimine] |  | 211 ± 9 |  |  | 35 ± 7 | n.i. | 42 ± 5 |  |  |  |  |  |  |  |  |  |  |
| CCOc1ccc(-c2c(/C=N/c3ccc(/N=C/c4cn5c(c4-c4ccc(OCC)c(OCC)c4)-c4cc(OCC)c(OCC)cc4CC5)cc3)cn3c2-c2cc(OCC)c(OCC)cc2CC3)cc1OCC [Compound 13a, (1E,1’E)-N,N’-(1,4-phenylene)bis(1-(1-[3,4-diethoxyphenyl]-8,9-diethoxy-5,6-dihydropyrrolo[2,1-a]isoquinolin-2-yl)methanimine)-1,4-diaminium dichloride] | 390 ± 19 | 103 ± 8 | 205 ± 10 |  |  |  |  | 240 ± 18 |  |  | 13 µM and 13.1 µM | 101 ± 6 | 42 ± 3 | 12.3 ± 1.1 | 31 ± 3 |  | 11 ± 3 |
| CCOc1ccc(-c2c(/C=N/c3ccc(OC)cc3)cn3c2-c2cc(OCC)c(OCC)cc2CC3)cc1OCC [Compound 7, (E)-1-(1-(3,4-diethoxyphenyl)-8,9-diethoxy-5,6-dihydropyrrolo[2,1-a]isoquinolin-2-yl)-N-(4-methoxyphenyl)methanimine] | 132 ± 4 | 38.5 ± 6.6 | 34.9 ± 1.8 | 171 ± 12 |  | n.i. |  | 79.5 ± 6.8 |  |  | 20.2 ± 3.1 µM |  | 78 ± 5.1 |  |  |  |  |
| CCOc1ccc(-c2c(/C=N/CCCN(C)C)cn3c2-c2cc(OCC)c(OCC)cc2CC3)cc1OCC.Cl.Cl [Compound 16a, (E)-N^1-((1-[3,4-diethoxyphenyl]-8,9-diethoxy-5,6-dihydropyrrolo[2,1-a]isoquinolin-2-yl)methylene)-N^3,N^3-dimethylpropane-1,3-diaminium chloride] | 72.8 ± 4.6 | 60.5 ± 0.7 | 63.1 ± 3.1 |  | 32 ± 2 | n.i. | 48 ± 4 | 85.1 ± 0.2 |  |  |  |  |  |  |  |  |  |
| COc1cc2c(cc1OC)-c1c(-c3ccc(F)cc3)c(C=O)cn1CC2 [Compound 5] | 17.8 ± 0.4 | 32.2 ± 0.3 | 33.8 ± 1 |  | 33 ± 4 | n.i. |  | 41.3 ± 2 |  |  |  |  |  |  |  |  |  |
